# Experimental data as given in patent publication US20100298141A1, “SUBSTITUTED PYRIDINE N-OXIDE HERBICIDES” (E. I. DU PONT DE NEMOURS AND COMPANY, priority 2007, published 2010).
# Tested on: Russian thistle
# Experiment: Test C pre-/postemergence test
# Type: in vivo, Salsola kali
# From the text: Seeds of plant species selected from blackgrass (Alopecurus myosuroides), downy brome (Bromus tectorum), green foxtail (Setaria viridis), Italian ryegrass (Lolium multiflorum), wheat (Triticum aestivum), wild oat (Avena fatua), catchweed bedstraw (Galium aparine), Russian thistle (Salsola kali), […] (Cynodon dactylon), Surinam grass (Brachiaria decumbens), cocklebur (Xanthium strumarium), corn (Zea mays), crabgrass (Digitaria sanguinalis), woolly cupgrass (Eriochloa villosa), giant foxtail (Setaria faberii), Goosegrass (Eleusin indica), johnsongrass (Sorghum halepense), kochia (Kochia scoparia), lambsquarters (Chenopodium album), morningglory (Ipomoea coccinea), eastern black nightshade (Solanum ptycanthum), yellow nutsedge (Cyperus esculentus), pigweed (Amaranthus retroflexus), common ragweed (Ambrosia elation), soybean (Glycine max), common (oilseed) sunflower (Helianthus annuus), and velvetleaf (Abutilon theophrasti) were planted and treated preemergence with test chemicals formulated in a non-phytotoxic solvent mixture which included a surfactant. At the same time, plants selected from these crop and weed species and also winter barley (Hordeum vulgare), canarygrass (Phalaris minor), and chickweed (Stellaria media) were treated with postemergence applications of some of the test chemicals formulated in the same manner. Plants ranged in height from 2 to 18 cm (1- to 4-leaf stage) for postemergence treatments. […] At time of treatment, test pots were flooded to 3 cm above the soil surface, treated by application of test compounds directly to the paddy water, and then maintained at that water depth for the duration of the test. […] A dash (-) response means no test result.
smiles,measurement,setting,value
CC(c1c(C(F)(F)F)nn(CC(F)(F)F)c1Cl)[S+]([O-])c1cccc[n+]1[O-] (stereo not drawn) [Compound 46],Russian Thistle plant response rating,"62 g ai/ha, Preemergence, scale 0 to 100",0
same,Russian Thistle plant response rating,"125 g ai/ha, preemergence, scale 0 (no effect) to 100 (complete control)",100
same,Russian Thistle plant response rating,"preemergence, 250 g ai/ha, scale 0 (no effect) to 100 (complete control)",100
